Columns and labels:
[1] = test system: leucine transporter (LeuT); test: LeuT stability, [3H]-Leu binding by scintillation proximity assay (SPA); type: biochemical, Aquifex aeolicus; conditions: CMC+0.2 wt %, room temperature, 12 days
Description: The ability of PSAs, PSEs or TPSs (TPS-A/E/ELs) to stabilize leucine transporter (LeuT), a membrane protein, was measured. LeuT purified by DDM was mixed with a solution containing each amphipathic compound, and the mixture was incubated at room temperature for 12 days. The activity of LeuT proteins was measured by scintillation proximity assay (SPA) using a ligand ([^3H]-Leu), and the concentration of PSAs, PSEs, TPSs or DDM was (a) CMC+0.04 wt %, or (b) CMC+0.2 wt %.
Specifically, LeuT stability measurement was performed in the following manner. According to the results of Example 6, PSA-C10, PSA-C11, PSE-C9, PSE-C11, and PSE-C13 were selected as the amphipathic compounds of PSAs and PSEs except for PSA-C9, and wild type leucine transporter (LeuT) was purified from Aquifex aeolicus using TPS-As, TPS-Es and TPS-EL, according to the method described in G. Deckert et al. (Nature 1998, 392, 353-358.). E. coli C41 (DE3) was transformed with a pET16b plasmid containing a gene construct encoding C-terminal 8×His-tagged LeuT, and thus LeuT was expressed in the form of a fusion protein having 8×His tags at the C-terminus in the transformed E. coli C41 (the expression plasmid was provided by Dr. E. Gouaux, Vollum Institute, Portland, Oreg., USA). Briefly, bacterial membranes containing LeuT were treated with 1.0 wt % DDM, and proteins were bound to Ni^2+-NTA resin (Life Technologies, Denmark). LeuT bound to the resin was eluted using a buffer solution containing 20 mM Tris-HCl (pH 8.0), 1 mM NaCl, 199 mM KCl, 0.05% DDM and 300 mM imidazole. Next, about 1.5 mg/mL of protein stock was diluted 10-fold in an equivalent buffer supplemented with TPS-As, TPS-Es, TPS-ELs, PSAs/PSEs (PSA-C10, PSA-C11, PSE-C9, PSE-C11 and PSE-C13) or DDM (control group) to a final concentration of CMC+0.04 wt % or CMC+0.2 wt % without DDM and imidazole. The protein samples were stored at room temperature and centrifuged at designated times. Protein activity was determined by measuring the degree of binding to [^3H]-Leu using scintillation proximity assay (SPA) (M. Quick et al., Proc. Natl, Acad. Sci. U.S.A. 2007, 104, 3603-3608.). Briefly, SPA was performed with 5 μL of each protein sample dissolved in a buffer containing 450 mM NaCl and each test compound. The SPA reaction was performed in the presence of 20 nM [^3H]-Leu and copper chelate (His-Tag) YSi beads (both were purchased from PerkinElmer, Denmark). The degree of binding to [^3H]-Leu was measured using a MicroBeta liquid scintillation counter (PerkinElmer).

[2] = critical micelle concentration (CMC) by hydrophobic fluorescent staining with diphenylhexatriene (DPH); type: physicochemical
Description: Methods of measuring CMC are not particularly limited, and methods widely known in the art may be used. For example, a fluorescence staining method using diphenylhexatriene (DPH) may be used.
To characterize PSAs of Preparation Examples 1 to 3 synthesized according to the synthetic method of Example 1; PSEs of Preparation Examples 4 to 7 synthesized according to the synthetic method of Example 2; TPS-Es and TPS-ELs of Preparation Examples 8 to 14 synthesized according to the synthetic method of Example 3; and TPS-As of Preparation Examples 15 to 17 synthesized according to the synthetic method of Example 4, the critical micellar concentrations (CMCs) of PSAs, PSEs and TPSs and the hydrodynamic radii (Rh) of formed micelles were measured.
(§1) Specifically, critical micellar concentrations (CMCs) were measured using hydrophobic fluorescent staining and diphenylhexatriene (DPH), and the hydrodynamic radii (Rh) of micelles formed by each compound at a concentration of 1.0 wt % were measured using dynamic light scattering (DLS). The results were compared with results obtained from an existing amphipathic molecule (detergent), DDM, and are shown in Table 1.

[3] = hydrodynamic radius of micelles by dynamic light scattering (DLS); type: physicochemical; conditions: compound at 1.0 wt %
Description: Methods of measuring the radius of micelles are not particularly limited, and methods widely known in the art may be used. For example, dynamic light scattering (DLS) may be used.
as §1
When measuring, each of PSAs, PSEs and TPSs was used at a concentration of 1.0 wt %.

[4] = target: T1, human β2 adrenergic receptor (β2AR) (Homo sapiens, UniProt P07550); test: β2AR activity by [3H]-dihydroalprenolol radioactive ligand binding assay; type: biochemical; conditions: 3 or 5 days at room temperature
T1 construct: Flag; made in house
Description: The membrane protein stabilizing ability of receptors (mBBr-β2ARs) solubilized in PSAs or PSEs was evaluated by measuring the binding activity of the receptors to [^3H]-dihydroalprenolol ([^3H]-DHA).
Specifically, radioactive ligand binding assay was performed as follows. β2ARs purified with 0.1 wt % DDM was concentrated to about 10 mg/mL (approximately 200 μM). β2ARs purified with DDM were used to prepare a master binding mixture containing 10 nM [^3H]-dihydroalprenolol (DHA), which was dissolved in 0.2 wt % of DDM, PSA or PSE and supplemented with 0.5 mg/mL BSA. At a concentration of 0.2 pmol, the activity of the receptors purified with the amphipathic compounds was monitored at regular intervals over a 4-day incubation period. Protein samples were incubated on ice for 2 days and then at room temperature for 2 days. Receptor activity was measured by binding assay for dissolved radioactive ligands. The receptors purified with DDM or a novel formulation (PSA-C11, PSE-C11 or PSE-C13) were incubated with 10 nM [^3H]-DHA at room temperature for 30 minutes. The mixture was loaded onto a G-50 column, a solution passed through the column was collected in 1 mL of a binding buffer (100 mM NaCl and 20 mM HEPES (pH 7.5) supplemented with 0.5 mg/mL BSA and 20×CMC amphipathic compounds), and 15 mL of a scintillation fluid was added to the solution. Receptor-bound [^3H]-DHA was measured using a scintillation counter (Beckman). Non-specific binding of [^3H]-DHA was measured by adding 1 μM alprenolol (Sigma) to the same reaction mixture. The binding degree of the receptors to [^3H]-DHA was represented by a column graph.
The ability of TPSs (TPS-As, TPS-Es and TPS-ELs) to stabilize the structures of human β2 adrenergic receptors (β2ARs) and G protein-coupled receptors (GPCRs) was measured. That is, DDM-purified receptors were diluted with a buffer solution containing only each of the TPSs without cholesteryl hemisuccinate (CHS) or a buffer solution containing CHS and DDM. The final concentration of the compounds was CMC+0.2wt %, and the binding activity of the receptors to ligands was evaluated by measuring the degree of binding of the receptors to [^3H]-dihydroalprenolol ([^3H]-DHA).
Specifically, radioactive ligand binding assay was performed as follows. β2ARs were purified with 0.1 wt % DDM (D. M. Rosenbaum et al., Science, 2007, 318, 1266-1273.) and was concentrated to about 10 mg/mL (approximately 200 μM). β2ARs purified with DDM were used to prepare a master binding mixture containing 10 nM [^3H]-dihydroalprenolol (DHA), which was dissolved in 0.2% amphipathic compounds (DDM or TPSs) and supplemented with 0.5 mg/mL BSA. The activity of the receptors purified with the amphipathic compounds was monitored at regular intervals over a 3- to 5-day incubation period. The receptors purified with DDM or TPSs were incubated with 10 nM [^3H]-DHA at room temperature for 30 minutes. The mixture was loaded onto a G-50 column, a solution passed through the column was collected in 1 mL of a binding buffer (100 mM NaCl and 20 mM HEPES (pH 7.5) supplemented with 0.5 mg/mL BSA and 20×CMC of each amphipathic compound), and 15 mL of a scintillation fluid was added to the solution. Receptor-bound [^3H]-DHA was measured using a scintillation counter (Beckman). The binding degree of the receptors to [^3H]-DHA was represented by a column graph.

T1 sequence (P07550 whole entry): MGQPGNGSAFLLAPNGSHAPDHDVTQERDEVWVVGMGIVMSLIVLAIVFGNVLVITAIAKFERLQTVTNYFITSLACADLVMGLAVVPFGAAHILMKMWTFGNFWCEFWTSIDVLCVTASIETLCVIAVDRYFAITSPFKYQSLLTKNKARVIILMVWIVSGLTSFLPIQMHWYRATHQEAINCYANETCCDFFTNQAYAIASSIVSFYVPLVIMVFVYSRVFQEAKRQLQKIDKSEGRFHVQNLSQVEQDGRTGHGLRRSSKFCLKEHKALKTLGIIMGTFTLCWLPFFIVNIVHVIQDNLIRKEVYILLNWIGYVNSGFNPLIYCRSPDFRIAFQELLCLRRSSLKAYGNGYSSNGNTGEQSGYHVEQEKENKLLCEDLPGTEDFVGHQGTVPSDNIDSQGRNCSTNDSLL

Structure (SMILES) | LeuT transporter activity retained after 12 days of incubation [1] [%] | CMC [2] [mM] | CMC (wt %) [2] [wt %] | Rh (nm), hydrodynamic radius of micelles [3] [nm] | long-term β2AR activity ([3H]-DHA binding) [4]
CCCCCCCCCCC(CCCCCCCCCC)(CO[C@@H]1O[C@H](CO)[C@@H](O[C@H]2O[C@H](CO)[C@@H](O)[C@H](O)[C@H]2O)[C@H](O)[C@H]1O)CO[C@@H]1O[C@H](CO)[C@@H](O[C@H]2O[C@H](CO)[C@@H](O)[C@H](O)[C@H]2O)[C@H](O)[C@H]1O [MNG-3, reference compound] | 40 | – | – | – | –
CCCCCCCOCC(COCCCCCCC)O[C@@H]1OC(CO[C@@H]2OC(CO)[C@@H](O)C(O)C2O)[C@@H](O[C@@H]2OC(CO)[C@@H](O)C(O)C2O)C(O[C@@H]2OC(CO)[C@@H](O)C(O)C2O)C1O[C@@H]1OC(CO)[C@@H](O)C(O)C1O (some centres unmarked) [PSE-C7] | – | ~0.27 | ~0.0300 | 2.66 ± 0.04 | –
CCCCCCOCC(COCCCCCC)(COCCCCCC)CO[C@@H]1OC(CO[C@@H]2OC(CO)[C@@H](O)C(O)C2O)[C@@H](O[C@@H]2OC(CO)[C@@H](O)C(O)C2O)C(O[C@@H]2OC(CO)[C@@H](O)C(O)C2O)C1O[C@@H]1OC(CO)[C@@H](O)C(O)C1O (some centres unmarked) [TPS-E6] | – | ~0.020 | ~0.0024 | 2.9 ± 0.05 | –
CCCCCCCOCC(COCCCCCCC)(COCCCCCCC)CO[C@@H]1OC(CO[C@@H]2OC(CO)[C@@H](O)C(O)C2O)[C@@H](O[C@@H]2OC(CO)[C@@H](O)C(O)C2O)C(O[C@@H]2OC(CO)[C@@H](O)C(O)C2O)C1O[C@@H]1OC(CO)[C@@H](O)C(O)C1O (some centres unmarked) [TPS-E7] | – | ~0.012 | ~0.0015 | 13.0 ± 0.8 | –
CCCCCCCCOCC(COCCCCCCCC)(COCCCCCCCC)CO[C@@H]1OC(COCCCO[C@@H]2OC(CO)[C@@H](O)C(O)C2O)[C@@H](OCCCO[C@@H]2OC(CO)[C@@H](O)C(O)C2O)C(OCCCO[C@@H]2OC(CO)[C@@H](O)C(O)C2O)C1OCCCO[C@@H]1OC(CO)[C@@H](O)C(O)C1O (some centres unmarked) [TPS-E8L] | – | ~0.006 | ~0.0009 | 4.5 ± 0.39 | –
CCCCCCCCCOCC(COCCCCCCCCC)(COCCCCCCCCC)CO[C@@H]1OC(COCCCO[C@@H]2OC(CO)[C@@H](O)C(O)C2O)[C@@H](OCCCO[C@@H]2OC(CO)[C@@H](O)C(O)C2O)C(OCCCO[C@@H]2OC(CO)[C@@H](O)C(O)C2O)C1OCCCO[C@@H]1OC(CO)[C@@H](O)C(O)C1O (some centres unmarked) [TPS-E9L] | – | ~0.004 | ~0.0006 | 4.6 ± 0.18 | significantly better than that of DDM

From US20190169218A1, “AMPHIPATHIC COMPOUND HAVING NOVEL PENTA-SACCHARIDE HYDROPHILIC GROUP AND USE THEREOF” (Industry-University Cooperation Foundation Hanyang …, priority 2016, published 2019)
